Data taken from publication PMC9573667, “Efficient Oxidative Dearomatisations of Substituted Phenols Using Hypervalent Iodine (III) Reagents and Antiprotozoal Evaluation of the Resulting Cyclohexadienones against T. b. rhodesiense and P. falciparum Strain NF54” (Molecules, 2022).
Read-outs that look alike come from different tables or passages of the source.

Assays:
[1] = system: P. falciparum, strain NF54, erythrocytic stages; test: In vitro growth inhibition assay of Plasmodium falciparum NF54 ([3H]-hypoxanthine incorporation); type: cell-based; conditions: for IC50: Plasmodium falciparum; for ligand efficiency lipophilic price (LELP), P. falciparum / lipophilic ligand efficiency (LLE), P. falciparum: based on IC50 values in nmol/L, DataWarrior 5.5.0
Experimental: Antimalarial activity was determined in vitro against the erythrocytic stages of P. falciparum using the drug-sensitive strain NF54. Parasite proliferation was assessed by incorporation of [^3H]-hypoxanthine using a modified version of [75]; for details, please refer to the Supplementary Materials. The positive control was chloroquine.
1. Experimental of biological testing
1.1 In vitro growth inhibition assay of Plasmodium falciparum NF54
Plasmodium falciparum, strain NF54, erythrocytic stages, and the standard drug, chloroquine, were used for the assay. The parasite cultures incubated in RPMI 1640 medium with 5% AlbuMAXTM (without hypoxanthine) were exposed to serial drug dilutions in microtiter plates. After 48 h of incubation at 37 °C in a reduced oxygen atmosphere, 0.5 μCi [3H]-hypoxanthine was added to each well of the plate. Cultures were incubated for a further 24 h before they were harvested onto glass-fiber filters and washed with distilled water. The radioactivity was counted using a BetaplateTM liquid scintillation […]
counter (Wallac, Zurich). […]
concentration and expressed as percentage of the untreated controls. IC50 values were calculated from the sigmoidal inhibition curves using Microsoft Excel. Chloroquine was used as control. […]

[2] = system: L6 cells rat skeletal myoblasts; test: Cytotoxicity against L6 cells (Alamar blue); type: cell-based; conditions: read-out: Cyt. L6 IC50
Experimental: The antiprotozoal activity of 5a,b has already been described in the literature. […] Cytotoxicity was determined using L6 rat skeletal myoblasts to calculate a selectivity index for each parasite (SI = IC50(L6)/IC50(parasite)).
Cytotoxicity was determined in vitro against rat L6 myoblasts as described; details are listed in the supplement. […]
1.3 Cytotoxicity against L6 cells
Assays were performed in 96-well microtiter plates, each well containing 100 μL of RPMI 1640 medium supplemented with 1% L-glutamine (200 mM) and 10% foetal bovine serum, and 4000 L6 cells (a […] cell line derived from rat skeletal myoblasts). Serial drug dilutions of 11 threefold dilution steps covering a range from 100 to 0.002 μg/mL were prepared. After 72 h of incubation, the plates were inspected under an inverted microscope to assure growth of the controls and sterile conditions. 10 μL of Alamar Blue solution was then added to each well and the plates incubated for another 2 h. Then the plates were read with a Spectramax Gemini XS microplate fluorometer (Molecular Devices Cooperation, Sunnyvale, CA, USA) using an excitation wavelength of 536 nm and an emission wavelength of 588 nm.
The IC50 values were calculated by linear regression from the sigmoidal dose inhibition curves using the microplate reader software Softmax Pro (Molecular Devices Cooperation, Sunnyvale, CA, USA).
Podophyllotoxin (Sigma P4405) was used as control.

[3] = system: T. brucei rhodesiense, strain STIB900 trypomastigote forms; test: In vitro growth inhibition assay of Trypanosoma brucei rhodesiense STIB900 (Alamar blue); type: cell-based; conditions: for IC50: Trypanosoma brucei; for ligand efficiency lipophilic price (LELP), T. brucei rhodesiense / lipophilic ligand efficiency (LLE), T. brucei rhodesiense: based on IC50 values in nmol/L, DataWarrior 5.5.0
Experimental: Trypanocidal activity was determined in vitro against axenically grown bloodstream-forms of T. b. rhodesiense STIB900 as described in Refs. [76, 77] and detailed in the Supplementary Materials. Parasite proliferation was assessed via fluorescence of the redox-sensitive dye resazurin (Alamar blue). The drug melarsoprol was used as the positive control. […]
1.2 In vitro growth inhibition assay of Trypanosoma brucei rhodesiense
Trypanosoma brucei rhodesiense, STIB 900 strain, and the standard drug, melarsoprol, were used for the assay. Minimum Essential Medium (50 μL) supplemented with 25 mM HEPES, 1g/L additional glucose, 1% MEM non-essential amino acids (100x), 0.2 mM 2-mercaptoethanol, 1 mM Na-pyruvate and 15% heat-inactivated horse serum was added to each well of a 96-well microtiter plate. Serial drug dilutions of 11 three-fold dilution steps covering a range from 100 to 0.002 μg/mL were prepared. Then […]
mL double-distilled water) was then added to each well and incubation continued for a further 2–4 h.
Then, the plates were read with a Spectramax Gemini XS microplate fluorometer (Molecular Devices Cooperation, Sunnyvale, CA, USA) using an excitation wavelength of 536 nm and an emission wavelength of 588 nm. The IC50 values were calculated from the sigmoidal inhibition curves using the microplate reader software Softmax Pro (Molecular Devices Cooperation, Sunnyvale, CA, USA).
Melarsoprol was used as control. […]

[4] = NF54, strain NF54, erythrocytic stages, means of two to three measurements, SD <5%, read-out: P. falc. IC50
[5] = strain STIB900 trypomastigote forms, means of two to three measurements, SD <5%, read-out: T. b. rhod. IC50
[6] = L6 rat skeletal myoblasts, 72 h

IC50 [1, 4] [nM] | IC50 [3, 5] [nM] | melting point [°C] | IC50 ([3]; read-out: T. brucei rhodesiense IC50) [nM] | IC50 ([3]; STIB900, stated in text in nM, read-out: T. brucei rhodesiense IC50) [nM] | SMILES | IC50 ([1]; NF54, read-out: P. falc. IC50) [nM] | IC50 ([2]; Rattus norvegicus, L6, 72 h) [nM] | ligand efficiency lipophilic price (LELP), P. falciparum [1] | lipophilic ligand efficiency (LLE), P. falciparum [1] | ligand efficiency lipophilic price (LELP), T. brucei rhodesiense [3] | lipophilic ligand efficiency (LLE), T. brucei rhodesiense [3] | IC50 [2, 6] [nM] | IC50 ([3]; read-out: T. b. rhod. IC50) [nM]
 |  |  |  |  | CCN(CC)CCCC(C)Nc1ccnc2cc(Cl)ccc12 (stereo not drawn) [Chl., chloroquine, reference compound] | 2 | 91100 |  |  |  |  |  | 
969 | 588 |  |  |  | COC(=O)CC1(O)C=CC(=O)C=C1 [Compound 4a, Methyl 2-(1-hydroxy-4-oxocyclohexa-2,5-dien-1-yl)acetate] |  |  | -0.2447 | 6.1690 | -0.2362 | 6.3859 | 391 | 
644 | 78 |  |  |  | COC(=O)CC1(O)C=CC(=O)C(F)=C1 (stereo not drawn) [Compound 4b, Methyl 2-(3-fluoro-1-hydroxy-4-oxocyclohexa-2,5-dien-1-yl)acetate] |  |  | 0.07582 | 6.1451 |  | 7.0619 | 657 | 
837 | 47 |  |  |  | COC(=O)CC1(O)C=CC(=O)C(Cl)=C1 (stereo not drawn) [Compound 4c, Methyl 2-(3-chloro-1-hydroxy-4-oxocyclohexa-2,5-dien-1-yl)acetate] |  |  | 0.4433 | 5.8133 | 0.3676 | 7.0639 | 440 | 
301 | 42 |  |  |  | COC(=O)CC1(O)C=CC(=O)C(Br)=C1 (stereo not drawn) [Compound 4d, Methyl 2-(3-bromo-1-hydroxy-4-oxocyclohexa-2,5-dien-1-yl)acetate] |  |  | 0.6181 | 6.1264 | 0.5464 | 6.9818 | 214 | 
245 | 10 |  |  |  | COC(=O)CC1(O)C=C(Cl)C(=O)C(Cl)=C1 [Compound 4e, Methyl 2-(3,5-dichloro-1-hydroxy-4-oxocyclohexa-2,5-dien-1-yl)acetate] |  |  | 1.1301 | 5.9275 | 0.9339 | 7.3167 | 116 | 
391 | 24 |  |  |  | COC(=O)CC1(O)C=C(Br)C(=O)C(Br)=C1 [Compound 4f, Methyl 2-(3,5-dibromo-1-hydroxy-4-oxocyclohexa-2,5-dien-1-yl)acetate] |  |  | 1.613 | 5.4625 | 1.3564 | 6.6745 | 199 | 
 | 4870 | 49 to 50 |  |  | COC(=O)CCC1(O)C=CC(=O)C=C1 [Compound 4g, Methyl 3-(1-hydroxy-4-oxocyclohexa-2,5-dien-1-yl)propanoate] |  |  | 0.5999 | 4.7892 | 0.5746 | 5.0134 | > 100000 | 
 | 4890 | 105 to 106 |  |  | O=C1C=CC2(C=C1)CCC(=O)O2 [Compound 4h, 1-Oxaspiro [4.5]deca-6,9-diene-2,8-dione] |  |  | 0.1197 | 5.4846 | 0.1253 | 5.2346 | 425 | 
657 | 108 |  |  |  | COC(=O)/C=C/C1(O)C=CC(=O)C=C1 [Compound 4i, Methyl (2E)-3-(1-hydroxy-4-oxocyclohexa-2,5-dien-1-yl)prop-2-enoate] |  |  | 0.07742 | 6.1355 | 0.0687 |  | 569 | 
 |  |  | < 100 |  | O=C1C=C(Cc2ccccc2)C(=O)c2ccccc21 [Compound 5c, 2-Benzyl-1,4-dihydronaphthalene-1,4-dione] | 917 | 22000 |  |  |  |  |  | 80
677 | 93 | 119 to 120 |  | < 100 | O=C1C=CC(=O)c2cc(F)ccc21 [Compound 5d, 6-Fluoro-1,4-dihydronaphthalene-1,4-dione] |  |  | 2.3657 | 4.6292 | 2.0757 | 5.4913 | 2170 | 
689 | 166 | 128 to 130 |  |  | O=C1C=CC(=O)c2cc(F)c(F)cc21 [Compound 5e, 6,7-Difluoro-1,4-dihydronaphthalene-1,4-dione] |  |  | 2.7178 | 4.5208 | 2.470 | 5.1389 | 4800 | 
 |  |  |  |  | Nc1nc(N)nc(Nc2ccc([As]3SCC(CO)S3)cc2)n1 (stereo not drawn) [Mel., melarsoprol, reference compound] |  | 24200 |  |  |  |  |  | 4
 |  |  |  |  | COc1cc([C@@H]2c3cc4c(cc3[C@H](O)[C@H]3COC(=O)[C@H]23)OCO4)cc(OC)c1OC [Pod., podophyllotoxin, reference compound] |  | 7 |  |  |  |  |  | 
